# Laboratory results taken from patent US20220372013A2, “PIPERIDINE-2,6-DIONE DERIVATIVES AND CROHN'S DISEASE TREATING” (Tianjin Hemay Pharmaceutical Sci-Tech Co., Ltd, priority 2016, published 2022).
# Marks after values point to notes of the source that are not given here.
# How the values were obtained:
# [1] = system: DNBS-Induced Inflammatory Bowel Disease Models in Rats; experiment: Biological Example 3: DNBS-induced inflammatory bowel disease models in rats; format: in vivo, Wistar rats; conditions: 30 mg/Kg i.g. qd × 7; for Adhesion Degree of Colon / Colon weight to length ratio / Inhibitory rate of colon adhesion / Inhibitory rate of ulcer area of colon / Inhibitory rate of weight increase per length / Ulcer area of colon: day 7; for Body weight: Mean ± SD
# Experimental: 102 male Wistar rats were fasted for 40 hours. A 5% glucose injection (10 mL/Kg) was administered subcutaneously during fasting. 72 rats with normal conditions and moderate body weight were selected from the fasting rats. The animals were randomly divided into 9 groups according to the body weight (see Table 9. Grouped Table).
# The animals were anesthetized with ether after 40 hours fasting. A specially made gavage device was slowly inserted into the enteric cavity at 8 cm from the anus. The model control group and each test group were administered with 0.5 mL of 50 mg/mL DNBS in 30% ethanol solution. The normal control group was administered with 0.5 mL of 30% ethanol solution. The animals were inverted in anesthesia for 15 minutes. The day when the model was prepared was day 0 of the experiment. After 4 hours of DNBS induction, the corresponding drug or the corresponding volume of 1% CMC-Na was administered once per day. On day 7 of the experiment, the animals were euthanized to score the colon adhesion degree, measure the length of colon and ulcer area, weigh colon and calculate the colon weight to length ratio.
# One-way ANOVA analysis of the length of colon and colon weight per length of rats was performed by SPSS22. Statistical analyses between groups were performed. The adhesion degree was scored. Mann-Whitney U non-parametric test was performed on ulcer area. Statistical analyses between groups were performed.
# Calculation Formula of Inhibitory rate of weight increase per length: (Colon weight to length ratio in model group−Colon weight to length ratio in administration group)/(Colon weight to length ratio in model group−Colon weight to length ratio in blank group)
# [2] = system: DNBS-Induced Inflammatory Bowel Disease Models in Rats; experiment: Biological Example 2: DNBS-induced inflammatory bowel disease models in rats; format: in vivo, Wistar rats; conditions: 0.1 mg/Kg i.g. qd × 6; sixth day; Mean ± SD
# Experimental: 110 male Wistar rats were fasted for 40 hours. A 5% glucose injection (10 mL/Kg) was administered subcutaneously during fasting. 48 rats with normal conditions and moderate body weight were selected from the fasting rats. The animals were randomly divided into […] according to the body weight: normal control group, model control group, sulfasalazine group (300 mg/Kg), dexamethasone group (0.1 mg/Kg), the compound in Example 26 group (30 mg/kg) and the compound in Example 27 group (30 mg/kg), with 8 rats in each group. The animals were anesthetized with isoflurane. A specially made gavage device (made by a rat gavage device having the diameter of 2 mm, which was nested on a mouse gavage device having the diameter of 1 mm) was slowly inserted into the enteric cavity at 8 cm from the anus. The model control group, the compound in Example 26 group and the compound in Example 27 group were administered with 0.5 mL of 50 mg/mL DNBS in 30% ethanol solution. The normal control group was administered with 0.5 mL of 30% ethanol solution. The animals were inverted in anesthesia for 15 minutes after the gavage device was removed. The day when the model was prepared was the first day of the experiment. After 4 hours of DNBS induction, the corresponding drug or the corresponding volume of 1% CMC-Na was administered once per day. On the sixth day of the experiment, the animals were euthanized to observe the results of each index so as to score the colon adhesion degree, measure the length of colon and ulcer area, weigh colon and calculate the colon weight to length ratio.
# The compound in Example 26 and Example 27, sulfasalazine and dexamethasone: Preparation Method: Suspended with 1% CMC-Na, and prepared when it was needed.
# Levene's Test for homogeneity of data was performed with Spss. Where the data were homogeneous (P>0.05), one-way ANOVA LSD test was performed. Where the analysis of variance was significant (P≤0.05), Dunnett's multiple comparison (parameter method) was performed. Where the results of Levene's Test were significant (P≤0.05), Kruskal-Wallis nonparametric test was performed. Where the results of Kruskal-Wallis nonparametric test were significant (P≤0.05), Mann-Whitney U test was performed for pairwise comparison.
# mice = experiment: Biological Example 5: acute toxicity experiment of single oral administration in mice; format: in vivo; conditions: single oral 1000 mg/Kg, Mean ± SD
# In short: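 Fasted ICR mice (19-21 g, three females and three males per group) received a single oral dose of 1000 mg/Kg, given first to one mouse of each sex and then to the remaining four. Behaviour, nervous and autonomic signs, and deaths were recorded over 0-15 min. Animals were then observed for 7 days with daily body weight.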
Structure (SMILES),Adhesion Degree of Colon [1] [point],Colon weight to length ratio [1] [mg/cm],Inhibitory rate of colon adhesion [1],Inhibitory rate of ulcer area of colon [1],Inhibitory rate of weight increase per length [1],Ulcer area of colon [1],Body weight ([1]; Day 0) [g],Body weight ([1]; Day 1) [g],Body weight ([1]; Day 2) [g],Body weight ([1]; Day 3) [g],Body weight ([1]; Day 4) [g],Body weight ([1]; Day 5) [g],Body weight ([1]; Day 6) [g],Body weight ([1]; Day 7) [g],"Daily Body Weight (mice; Female mice, Day 1) [g]","Daily Body Weight (mice; Female mice, Day 2) [g]","Daily Body Weight (mice; Female mice, Day 3) [g]","Daily Body Weight (mice; Female mice, Day 4) [g]","Daily Body Weight (mice; Female mice, Day 5) [g]","Daily Body Weight (mice; Female mice, Day 6) [g]",other results
"COCCN1C(=O)CCC(N2C(=O)c3ccc(N)cc3C2=O)C1=O (centres unmarked) [Example 7, 5-amino-2-(1-(2-methoxyethyl)-2,6-dioxopiperidin-3-yl)isoindolin-1,3-dione]",0.9 ± 0.8,127 ± 52,47.1# %,75.1%,35.4%,0.77 ± 1.05 cm^2,136.1 ± 2.5,136.7 ± 3.7,137.0 ± 8.7,141.6 ± 11.9,148.2 ± 12.7,159.2 ± 13.2,168.0 ± 15.7,173.5 ± 18.5,–,–,–,–,–,–,–
"C[C@@H]1C[C@H]2[C@@H]3CCC4=CC(=O)C=C[C@]4(C)[C@@]3(F)[C@@H](O)C[C@]2(C)[C@@]1(O)C(=O)CO [Dexamethasone, dexamethasone, reference compound]",–,–,–,–,–,–,–,–,–,–,–,–,–,–,–,–,–,–,–,–,Adhesion Degree [2]: 0.3 ± 0.5 Points; Colon Length [2]: 14.2 ± 0.9 cm; Colon Weight [2]: 1496.0 ± 450.0 mg; Ulcer Area [2]: 1.4 ± 1.5# cm^2
"Nc1cccc2c1C(=O)N(C1CCC(=O)N(CCO)C1=O)C2=O (centres unmarked) [Example 6, 4-amino-2-(1-(2-hydroxyethyl)-2,6-dioxopiperidin-3-yl)isoindolin-1,3-dione]",0.6 ± 0.5,99 ± 21,64.7# %,89.0# %,70.9## %,0.34 ± 0.54# cm^2,137.5 ± 5.6,138.1 ± 8.0,141.8 ± 13.1,147.4 ± 16.5,154.5 ± 17.7,164.2 ± 16.2,169.3 ± 18.4,180.9 ± 15.5,17.5 ± 0.9,21.5 ± 0.9,21.6 ± 1.3,22.0 ± 1.2,22.3 ± 1.9,22.4 ± 2.3,"Daily Body Weight (mice; Female mice, Day 7): 22.9 ± 2.0 g; Daily Body Weight (mice; Male mice, Day 1): 18.4 ± 0.6 g; Daily Body Weight (mice; Male mice, Day 2): 21.5 ± 0.9 g; Daily Body Weight (mice; Male mice, Day 3): 21.6 ± 1.3 g; Daily Body Weight (mice; Male mice, Day 4): 25.5 ± 0.5 g; Daily Body Weight (mice; Male mice, Day 5): 25.9 ± 0.9 g; Daily Body Weight (mice; Male mice, Day 6): 26.9 ± 1.1 g; Daily Body Weight (mice; Male mice, Day 7): 27.1 ± 1.1 g"
"COCCN1C(=O)CCC(N2C(=O)c3ccc(F)cc3C2=O)C1=O (centres unmarked) [Example 21, 5-fluoro-2-(1-(2-methoxyethyl)-2,6-dioxopiperidin-3-yl)-isoindolin-1,3-dione]",0.9 ± 0.7,104 ± 17,47.1# %,70.0%,64.6## %,0.93 ± 1.52 cm^2,135.6 ± 6.9,134.4 ± 6.8,133.9 ± 6.8,138.7 ± 6.8,146.4 ± 6.9,157.9 ± 8.9,168.3 ± 4.6,173.5 ± 7.4,–,–,–,–,–,–,–
"COCCN1C(=O)CCC(N2C(=O)c3cccc(F)c3C2=O)C1=O (centres unmarked) [Example 4, 4-fluoro-2-(1-(2-methoxyethyl)-2,6-dioxopiperidin-3-yl)isoindolin-1,3-dione]",0.6 ± 0.7,125 ± 34,64.7## %,81.2# %,38.0%,0.58 ± 0.78# cm^2,137.1 ± 6.2,136.2 ± 4.1,138.2 ± 6.9,141.1 ± 8.8,151.8 ± 13.4,162.5 ± 13.0,170.8 ± 13.0,181.0 ± 12.2,18.4 ± 0.4,21.8 ± 0.5,23.2 ± 0.6,23.5 ± 1.2,24.7 ± 0.9,24.2 ± 1.2,"Daily Body Weight (mice; Female mice, Day 7): 24.0 ± 0.8 g; Daily Body Weight (mice; Male mice, Day 1): 17.6 ± 0.2 g; Daily Body Weight (mice; Male mice, Day 2): 22.2 ± 0.3 g; Daily Body Weight (mice; Male mice, Day 3): 23.6 ± 0.6 g; Daily Body Weight (mice; Male mice, Day 4): 24.7 ± 0.6 g; Daily Body Weight (mice; Male mice, Day 5): 26.7 ± 0.4 g; Daily Body Weight (mice; Male mice, Day 6): 27.6 ± 0.8 g; Daily Body Weight (mice; Male mice, Day 7): 28.2 ± 0.1 g"
"COCCCCN1C(=O)CCC(N2C(=O)c3cccc(N)c3C2=O)C1=O (centres unmarked) [Example 22, 4-amino-2-(1-(4-methoxybutyl)-2,6-dioxopiperidin-3-yl)isoindolin-1,3-dione]",0.8 ± 0.9,112 ± 40,52.9# %,40.5%,54.4# %,1.84 ± 2.59 cm^2,137.5 ± 7.2,137.0 ± 9.0,139.7 ± 11.2,144.1 ± 12.7,152.6 ± 20.0,162.7 ± 19.0,170.5 ± 17.7,178.3 ± 20.7,18.5 ± 0.6,21.8 ± 0.3,22.9 ± 0.4,24.0 ± 1.0,25.0 ± 0.4,25.3 ± 0.6,"Daily Body Weight (mice; Female mice, Day 7): 25.6 ± 0.2 g; Daily Body Weight (mice; Male mice, Day 1): 17.1 ± 0.3 g; Daily Body Weight (mice; Male mice, Day 2): 22.9 ± 0.8 g; Daily Body Weight (mice; Male mice, Day 3): 23.5 ± 0.9 g; Daily Body Weight (mice; Male mice, Day 4): 25.2 ± 0.5 g; Daily Body Weight (mice; Male mice, Day 5): 27.2 ± 1.9 g; Daily Body Weight (mice; Male mice, Day 6): 27.1 ± 1.8 g; Daily Body Weight (mice; Male mice, Day 7): 27.4 ± 1.9 g"
